Assay results: PubChem BioAssay AID720512 (Broad Institute, 2013)
The source made the active and inactive calls. No rule for the calls is given here.

Target: Toxin B (TcdB) glycohydrolase, Clostridioides difficile 630
Experiment: TcdB glycohydrolase inhibitors, dose response, biochemical, cherry-pick, plate reader (AID 720512)
Details: recombinant TcdB glycohydrolase activity

Structure (SMILES)	activity change, negative = inhibition (at 19.5 µM (top of the series))	other results
O=C(N/N=C/c1cccc([N+](=O)[O-])c1)c1ccc(Br)cc1	inactive	–
COc1ccc(/C=C\c2onc(C)c2S(=O)(=O)N2CCC(C(=O)NCc3ccco3)CC2)cc1	inactive	–
Cc1ccc(NCCN(C)C)c2c(=O)c3cc(O)ccc3sc12	inactive	–
CCOc1ccccc1/C=C/c1onc(C)c1S(=O)(=O)N1CCC(C(=O)NC(C)C)CC1	inactive	–
CS(=O)(=O)Nc1cccc(C2=NN(C(=O)c3ccccc3)C(c3cccs3)C2)c1 (configuration not stated)	inactive	–
Cc1cnc(C(=O)OCC(=O)Nc2ccc(OCc3ccccc3)cc2)cn1	inactive	–
Cc1cc(C)c2sc(NNC(=O)C3COc4ccccc4O3)nc2c1 (configuration not stated)	inactive	–
O=C1Nc2ccc(Br)cc2C1Cc1ccccc1F (configuration not stated)	–	AC50: > 39 µM (inactive)
COc1ccc(C(O)(C(C)C)C(CN2CCOCC2)c2ccccc2)cc1 (configuration not stated)	inactive	–
CC(=O)c1ccc(NC(=O)CNCC(c2ccccc2)N(C)C)cc1 (configuration not stated)	inactive	–
O=c1onc(-c2ccccc2)n1Cc1ccc([N+](=O)[O-])cc1	inactive	–
CN1C(=O)c2cc(NC(=O)Nc3ccccc3Cl)ccc2OC[C@H]2O[C@@H](CC(=O)NCCCN3CCOCC3)CC[C@H]21	–	activity change, negative = inhibition (at 21 µM (top of the series)): inactive
CCc1[nH]c(=O)c(C#N)c2c1CCCC2	inactive	–
COc1ccccc1OCC(=O)Nc1ccc(-c2nnc(-c3ccco3)o2)cc1	inactive	–
O=C(C[C@H]1CC[C@H]2[C@@H](COC[C@@H](O)CN2Cc2ccccc2)O1)NCCc1ccccc1	inactive	–
O=c1[nH]c2cc(O)ccc2c2ccccc12	inactive	–

Structure (SMILES)	activity change, negative = inhibition (at 19.5 µM (top of the series))	other results
CC(=O)Nc1cc(-c2ccc(F)cc2)[nH]n1	inactive	–
O=C(NNC(=O)c1cccc2ccccc12)c1cccc(F)c1	inactive	–
ON=C1c2ccccc2-c2ccc(O)cc21	–	AC50: 22 µM
CC(C)c1cc(CN2CCN(Cc3ccc(F)c(F)c3)C(CCO)C2)[nH]n1 (configuration not stated)	inactive	–
COc1ccc(/C=C/c2onc(C)c2S(=O)(=O)N2CCC(C(=O)N3CCC(C)CC3)CC2)cc1	inactive	–
COc1ccc(NC(=O)CN(C)C(=O)c2cccc(NS(=O)(=O)c3ccc(Br)cc3)c2)cc1	inactive	–
C[C@@H]1CN([C@@H](C)CO)S(=O)(=O)c2ccc(-c3ccncc3)cc2O[C@@H]1CN(C)Cc1ccc(Oc2ccccc2)cc1	inactive	–
CCOc1ccccc1/C=C/c1onc(C)c1S(=O)(=O)N1CCC(C(=O)NC(C)(C)C)CC1	inactive	–
O=C(Nc1ccncc1)c1ccc(-c2ccccc2)cc1	inactive	–
COc1cc(/C=C/C(=O)OCC(=O)NC(=O)NC(C)(C)C)ccc1O	–	AC50: > 39 µM (inactive)
CC(C)CC(=O)N1CCN(Cc2ccc(Br)cc2)CC1	inactive	–
CN1C(=O)CSc2ccc(NC(=O)N3CCc4ccccc43)cc21	inactive	–
Cc1onc(-c2c(F)cccc2Cl)c1C(=O)Nc1nnc(C(F)(F)F)s1	inactive	–
Cc1cnc([N+](=O)[O-])n1CCOC(=O)NC(=O)c1ccc(F)cc1	inactive	–
Cc1cc(C(=O)N2CCN(Cc3ccccc3)CC2)ccc1[N+](=O)[O-]	inactive	–
COc1ccc(NC(=O)CSc2nccn2C)cc1S(N)(=O)=O	inactive	–
